Experimental data published in ChEMBL document CHEMBL4507297, “Data for DCP probe PF-04457845” (2021).

Legend:
[1] = tested on: Tyrosine-protein kinase ABL1 (Homo sapiens), P00519 [M351T]; settings: Compound concentration 1000.0 nM
[2] = tested on: Tyrosine-protein kinase ABL1 (Homo sapiens), P00519 [Q252H]; settings: Compound concentration 1000.0 nM
[3] = molecular target: Tyrosine-protein kinase ABL1 (Homo sapiens) (UniProt P00519); settings: Compound concentration 1000.0 nM
[4] = tested on: ALK tyrosine kinase receptor (Homo sapiens), Q9UM73 [L1196M]; settings: Compound concentration 1000.0 nM
[5] = molecular target: Serine/threonine-protein kinase BRSK1 (Homo sapiens) (UniProt Q8TDC3); settings: Compound concentration 1000.0 nM
[6] = molecular target: Calcium/calmodulin-dependent protein kinase type IV (Homo sapiens) (UniProt Q16566); settings: Compound concentration 1000.0 nM
[7] = molecular target: Cyclin-dependent kinase 8 (Homo sapiens) (UniProt P49336); settings: Compound concentration 1000.0 nM
[8] = molecular target: Cyclin-dependent kinase 9 (Homo sapiens) (UniProt P50750); settings: Compound concentration 1000.0 nM
[9] = molecular target: Epithelial discoidin domain-containing receptor 1 (Homo sapiens) (UniProt Q08345); settings: Compound concentration 1000.0 nM
[10] = molecular target: Eukaryotic translation initiation factor 2-alpha kinase 1 (Homo sapiens) (UniProt Q9BQI3); settings: Compound concentration 1000.0 nM
[11] = molecular target: Mitogen-activated protein kinase 7 (Homo sapiens) (UniProt Q13164); settings: Compound concentration 1000.0 nM
[12] = molecular target: Mitogen-activated protein kinase 15 (Homo sapiens) (UniProt Q8TD08); settings: Compound concentration 1000.0 nM
[13] = molecular target: Tyrosine-protein kinase Fes/Fps (Homo sapiens) (UniProt P07332); settings: Compound concentration 1000.0 nM
[14] = tested on: Fibroblast growth factor receptor 3 (Homo sapiens), P22607 [G697C]; settings: Compound concentration 1000.0 nM
[15] = molecular target: Fibroblast growth factor receptor 4 (Homo sapiens) (UniProt P22455); settings: Compound concentration 1000.0 nM
[16] = tested on: Receptor-type tyrosine-protein kinase FLT3 (Homo sapiens), P36888 [UNDEFINED MUTATION]; settings: Compound concentration 1000.0 nM
[17] = tested on: Mast/stem cell growth factor receptor Kit (Homo sapiens), P10721 [A829P]; settings: Compound concentration 1000.0 nM
[18] = molecular target: Tyrosine-protein kinase Lck (Homo sapiens) (UniProt P06239); settings: Compound concentration 1000.0 nM
[19] = molecular target: Microtubule-associated serine/threonine-protein kinase 1 (Homo sapiens) (UniProt Q9Y2H9); settings: Compound concentration 1000.0 nM
[20] = molecular target: Dual specificity mitogen-activated protein kinase kinase 7 (Homo sapiens) (UniProt O14733); settings: Compound concentration 1000.0 nM
[21] = molecular target: Serine/threonine-protein kinase MRCK alpha (Homo sapiens) (UniProt Q5VT25); settings: Compound concentration 1000.0 nM
[22] = molecular target: Serine/threonine-protein kinase Nek10 (Homo sapiens) (UniProt Q6ZWH5); settings: Compound concentration 1000.0 nM
[23] = molecular target: Serine/threonine-protein kinase Nek6 (Homo sapiens) (UniProt Q9HC98); settings: Compound concentration 1000.0 nM
[24] = molecular target: Serine/threonine-protein kinase NIM1 (Homo sapiens) (UniProt Q8IY84); settings: Compound concentration 1000.0 nM
[25] = molecular target: Serine/threonine-protein kinase PAK 3 (Homo sapiens) (UniProt O75914); settings: Compound concentration 1000.0 nM
[26] = molecular target: Cyclin-dependent kinase 2 homolog (Plasmodium falciparum (isolate 3D7)) (UniProt P61075); settings: Compound concentration 1000.0 nM
[27] = molecular target: Cyclin-dependent kinase 14 (Homo sapiens) (UniProt O94921); settings: Compound concentration 1000.0 nM
[28] = tested on: Phosphatidylinositol 4,5-bisphosphate 3-kinase catalytic subunit alpha isoform (Homo sapiens), P42336 [H1047Y]; settings: Compound concentration 1000.0 nM
[29] = molecular target: Phosphatidylinositol 4,5-bisphosphate 3-kinase catalytic subunit delta isoform (Homo sapiens) (UniProt O00329); settings: Compound concentration 1000.0 nM
[30] = molecular target: Phosphatidylinositol 4,5-bisphosphate 3-kinase catalytic subunit gamma isoform (Homo sapiens) (UniProt P48736); settings: Compound concentration 1000.0 nM
[31] = molecular target: Serine/threonine-protein kinase PLK2 (Homo sapiens) (UniProt Q9NYY3); settings: Compound concentration 1000.0 nM
[32] = molecular target: Interferon-induced, double-stranded RNA-activated protein kinase (Homo sapiens) (UniProt P19525); settings: Compound concentration 1000.0 nM
[33] = molecular target: Receptor-interacting serine/threonine-protein kinase 1 (Homo sapiens) (UniProt Q13546); settings: Compound concentration 1000.0 nM
[34] = molecular target: Dual serine/threonine and tyrosine protein kinase (Homo sapiens) (UniProt Q6XUX3); settings: Compound concentration 1000.0 nM
[35] = molecular target: Ribosomal protein S6 kinase alpha-5 (Homo sapiens) (UniProt O75582); settings: Compound concentration 1000.0 nM
[36] = molecular target: Ribosomal protein S6 kinase alpha-6 (Homo sapiens) (UniProt Q9UK32); settings: Compound concentration 1000.0 nM
[37] = molecular target: Serine/threonine-protein kinase SBK1 (Homo sapiens) (UniProt Q52WX2); settings: Compound concentration 1000.0 nM
[38] = molecular target: SNF-related serine/threonine-protein kinase (Homo sapiens) (UniProt Q9NRH2); settings: Compound concentration 1000.0 nM
[39] = molecular target: Serine/threonine-protein kinase 35 (Homo sapiens) (UniProt Q8TDR2); settings: Compound concentration 1000.0 nM
[40] = molecular target: Non-receptor tyrosine-protein kinase TYK2 (Homo sapiens) (UniProt P29597); settings: Compound concentration 1000.0 nM
[41] = molecular target: Serine/threonine-protein kinase ULK1 (Homo sapiens) (UniProt O75385); settings: Compound concentration 1000.0 nM
[42] = molecular target: Serine/threonine-protein kinase VRK2 (Homo sapiens) (UniProt Q86Y07); settings: Compound concentration 1000.0 nM
[43] = molecular target: Mitogen-activated protein kinase kinase kinase 19 (Homo sapiens) (UniProt Q56UN5); settings: Compound concentration 1000.0 nM
[44] = molecular target: Sodium-dependent serotonin transporter (Homo sapiens) (UniProt P31645); settings: Compound concentration 10.0 uM

Sequence of Interferon-induced, double-stranded RNA-activated protein kinase (Homo sapiens) (P19525 whole entry): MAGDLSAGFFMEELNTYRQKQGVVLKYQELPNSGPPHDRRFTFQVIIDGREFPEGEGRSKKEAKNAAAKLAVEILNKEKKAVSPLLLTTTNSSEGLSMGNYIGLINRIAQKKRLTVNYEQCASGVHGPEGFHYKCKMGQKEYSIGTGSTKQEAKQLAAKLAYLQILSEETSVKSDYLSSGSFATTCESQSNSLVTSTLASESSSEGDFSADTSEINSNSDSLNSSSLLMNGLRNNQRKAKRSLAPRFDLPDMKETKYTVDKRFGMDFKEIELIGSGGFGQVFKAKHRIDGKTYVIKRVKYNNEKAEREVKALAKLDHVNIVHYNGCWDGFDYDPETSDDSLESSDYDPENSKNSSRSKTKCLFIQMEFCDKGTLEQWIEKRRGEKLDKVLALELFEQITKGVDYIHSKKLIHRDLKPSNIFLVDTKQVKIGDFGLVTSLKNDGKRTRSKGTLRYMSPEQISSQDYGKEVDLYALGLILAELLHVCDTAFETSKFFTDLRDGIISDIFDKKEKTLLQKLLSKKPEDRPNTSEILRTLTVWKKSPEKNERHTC
Sequence of Ribosomal protein S6 kinase alpha-5 (Homo sapiens) (O75582 whole entry, looked up): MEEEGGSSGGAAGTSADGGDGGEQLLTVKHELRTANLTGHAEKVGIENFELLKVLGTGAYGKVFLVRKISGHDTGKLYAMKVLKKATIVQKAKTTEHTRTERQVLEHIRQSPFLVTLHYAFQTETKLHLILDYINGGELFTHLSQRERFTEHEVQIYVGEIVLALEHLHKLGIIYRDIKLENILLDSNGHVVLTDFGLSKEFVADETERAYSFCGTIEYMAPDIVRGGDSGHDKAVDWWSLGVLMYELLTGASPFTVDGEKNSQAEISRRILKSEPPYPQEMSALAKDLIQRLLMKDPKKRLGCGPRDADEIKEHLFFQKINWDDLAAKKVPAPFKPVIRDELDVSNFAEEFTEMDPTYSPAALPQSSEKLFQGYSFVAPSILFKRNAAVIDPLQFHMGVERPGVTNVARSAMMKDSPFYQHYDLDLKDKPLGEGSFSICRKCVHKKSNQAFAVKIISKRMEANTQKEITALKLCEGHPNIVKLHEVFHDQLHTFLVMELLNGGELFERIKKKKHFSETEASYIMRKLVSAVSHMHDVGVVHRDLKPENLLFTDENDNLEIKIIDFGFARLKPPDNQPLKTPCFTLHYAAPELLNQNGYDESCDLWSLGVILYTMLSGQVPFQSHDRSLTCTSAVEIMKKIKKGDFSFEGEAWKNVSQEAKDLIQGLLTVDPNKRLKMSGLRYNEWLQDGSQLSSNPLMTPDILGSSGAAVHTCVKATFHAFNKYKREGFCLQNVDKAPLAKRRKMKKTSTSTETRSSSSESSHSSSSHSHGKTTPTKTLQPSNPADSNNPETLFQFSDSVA
Sequence of Cyclin-dependent kinase 9 (Homo sapiens) (P50750 whole entry, the tested form may be a part): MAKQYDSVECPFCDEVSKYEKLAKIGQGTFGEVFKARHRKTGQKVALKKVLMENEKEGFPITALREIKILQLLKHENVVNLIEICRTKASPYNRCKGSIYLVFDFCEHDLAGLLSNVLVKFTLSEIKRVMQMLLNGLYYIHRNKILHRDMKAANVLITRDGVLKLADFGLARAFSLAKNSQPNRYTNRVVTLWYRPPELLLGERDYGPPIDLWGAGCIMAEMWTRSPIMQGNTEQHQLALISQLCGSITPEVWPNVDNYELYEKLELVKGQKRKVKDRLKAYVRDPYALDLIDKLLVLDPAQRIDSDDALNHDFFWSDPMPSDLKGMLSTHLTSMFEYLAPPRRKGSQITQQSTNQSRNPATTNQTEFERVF
Sequence of Mast/stem cell growth factor receptor Kit (Homo sapiens), P10721 [A829P] (P10721 whole entry A829P): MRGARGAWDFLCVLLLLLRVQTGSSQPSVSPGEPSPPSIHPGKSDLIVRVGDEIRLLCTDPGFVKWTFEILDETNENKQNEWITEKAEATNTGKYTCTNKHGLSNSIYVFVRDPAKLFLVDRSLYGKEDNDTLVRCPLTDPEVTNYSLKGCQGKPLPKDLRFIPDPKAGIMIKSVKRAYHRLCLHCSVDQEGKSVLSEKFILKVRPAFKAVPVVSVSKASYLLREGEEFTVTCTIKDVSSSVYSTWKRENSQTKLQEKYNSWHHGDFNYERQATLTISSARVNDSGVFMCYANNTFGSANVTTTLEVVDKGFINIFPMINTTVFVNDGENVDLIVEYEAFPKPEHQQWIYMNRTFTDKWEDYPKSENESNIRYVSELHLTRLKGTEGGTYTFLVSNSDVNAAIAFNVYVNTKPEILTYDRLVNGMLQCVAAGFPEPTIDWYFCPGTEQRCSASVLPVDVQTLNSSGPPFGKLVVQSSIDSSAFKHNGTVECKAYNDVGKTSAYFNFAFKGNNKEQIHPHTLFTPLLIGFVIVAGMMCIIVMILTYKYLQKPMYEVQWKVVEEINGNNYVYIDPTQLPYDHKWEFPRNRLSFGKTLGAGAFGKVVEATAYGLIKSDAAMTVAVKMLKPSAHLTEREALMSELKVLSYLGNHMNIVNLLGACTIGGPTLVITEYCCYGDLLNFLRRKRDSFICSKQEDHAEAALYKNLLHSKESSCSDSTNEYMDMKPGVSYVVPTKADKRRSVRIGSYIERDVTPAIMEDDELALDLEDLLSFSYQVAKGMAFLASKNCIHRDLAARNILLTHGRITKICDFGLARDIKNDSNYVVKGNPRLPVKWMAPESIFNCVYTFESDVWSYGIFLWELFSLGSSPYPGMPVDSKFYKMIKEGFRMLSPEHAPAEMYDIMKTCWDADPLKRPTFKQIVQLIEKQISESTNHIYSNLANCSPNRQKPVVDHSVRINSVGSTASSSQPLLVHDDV
Sequence of Tyrosine-protein kinase Lck (Homo sapiens) (P06239 2-509 limits assumed): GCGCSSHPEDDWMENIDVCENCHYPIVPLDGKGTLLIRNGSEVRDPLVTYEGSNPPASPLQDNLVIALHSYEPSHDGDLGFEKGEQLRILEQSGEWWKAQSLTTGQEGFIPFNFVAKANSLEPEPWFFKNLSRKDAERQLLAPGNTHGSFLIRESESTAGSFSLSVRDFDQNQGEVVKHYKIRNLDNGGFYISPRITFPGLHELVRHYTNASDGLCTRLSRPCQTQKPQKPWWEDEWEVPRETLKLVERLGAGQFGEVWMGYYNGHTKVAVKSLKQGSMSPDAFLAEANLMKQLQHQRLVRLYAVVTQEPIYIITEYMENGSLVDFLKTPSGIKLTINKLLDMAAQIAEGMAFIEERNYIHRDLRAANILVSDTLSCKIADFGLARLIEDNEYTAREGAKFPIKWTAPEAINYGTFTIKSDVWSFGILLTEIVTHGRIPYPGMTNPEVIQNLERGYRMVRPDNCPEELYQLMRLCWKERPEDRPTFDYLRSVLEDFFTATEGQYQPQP
Sequence of Epithelial discoidin domain-containing receptor 1 (Homo sapiens) (Q08345 whole entry, the tested form may be a part): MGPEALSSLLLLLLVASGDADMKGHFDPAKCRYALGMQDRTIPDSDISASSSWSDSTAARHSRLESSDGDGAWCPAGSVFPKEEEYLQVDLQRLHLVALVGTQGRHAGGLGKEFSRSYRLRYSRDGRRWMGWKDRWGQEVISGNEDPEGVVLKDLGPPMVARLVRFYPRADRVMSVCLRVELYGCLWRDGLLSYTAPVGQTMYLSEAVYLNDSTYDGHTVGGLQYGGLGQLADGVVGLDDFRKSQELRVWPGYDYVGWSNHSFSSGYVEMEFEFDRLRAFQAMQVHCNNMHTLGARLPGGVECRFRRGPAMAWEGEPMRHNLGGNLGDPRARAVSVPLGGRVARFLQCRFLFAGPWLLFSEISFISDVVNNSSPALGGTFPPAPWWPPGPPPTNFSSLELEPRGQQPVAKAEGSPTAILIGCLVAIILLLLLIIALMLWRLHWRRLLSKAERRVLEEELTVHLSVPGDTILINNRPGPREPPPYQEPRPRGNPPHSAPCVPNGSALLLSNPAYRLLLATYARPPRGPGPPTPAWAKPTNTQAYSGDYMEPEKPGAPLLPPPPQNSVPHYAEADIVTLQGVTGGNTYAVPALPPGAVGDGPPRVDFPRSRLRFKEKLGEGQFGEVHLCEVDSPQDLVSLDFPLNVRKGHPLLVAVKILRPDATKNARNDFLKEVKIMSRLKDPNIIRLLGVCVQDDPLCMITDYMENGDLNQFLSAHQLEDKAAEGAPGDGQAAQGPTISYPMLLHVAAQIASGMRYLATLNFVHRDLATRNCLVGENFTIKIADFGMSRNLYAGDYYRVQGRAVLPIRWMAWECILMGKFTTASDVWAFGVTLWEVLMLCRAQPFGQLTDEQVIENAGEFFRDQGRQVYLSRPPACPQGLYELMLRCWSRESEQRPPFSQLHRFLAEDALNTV
Sequence of Serine/threonine-protein kinase PLK2 (Homo sapiens) (Q9NYY3 whole entry, looked up): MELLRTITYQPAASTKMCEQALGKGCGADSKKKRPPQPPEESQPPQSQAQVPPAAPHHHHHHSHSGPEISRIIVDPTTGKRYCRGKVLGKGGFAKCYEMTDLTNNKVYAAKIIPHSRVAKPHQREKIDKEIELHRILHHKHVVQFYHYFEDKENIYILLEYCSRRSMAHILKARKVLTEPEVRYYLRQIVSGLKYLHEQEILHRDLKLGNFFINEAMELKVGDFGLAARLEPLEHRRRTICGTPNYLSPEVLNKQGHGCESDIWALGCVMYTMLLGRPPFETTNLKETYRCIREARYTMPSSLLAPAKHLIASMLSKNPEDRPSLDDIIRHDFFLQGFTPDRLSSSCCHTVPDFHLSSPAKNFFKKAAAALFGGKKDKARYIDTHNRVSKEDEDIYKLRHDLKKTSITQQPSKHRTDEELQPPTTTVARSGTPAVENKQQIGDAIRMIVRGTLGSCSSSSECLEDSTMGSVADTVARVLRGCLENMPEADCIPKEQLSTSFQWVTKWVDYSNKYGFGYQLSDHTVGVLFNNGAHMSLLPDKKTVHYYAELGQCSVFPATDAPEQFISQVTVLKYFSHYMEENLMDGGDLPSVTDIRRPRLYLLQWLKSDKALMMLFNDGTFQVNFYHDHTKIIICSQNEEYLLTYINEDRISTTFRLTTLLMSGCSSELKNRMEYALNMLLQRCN

O=C(Nc1cccnn1)N1CCC(=Cc2cccc(Oc3ccc(C(F)(F)F)cn3)c2)CC1
inactive: residual activity [1] 99% | residual activity [2] 75% | residual activity [3] 93% | residual activity [4] 100% | residual activity [5] 73% | residual activity [6] 63% | residual activity [7] 100% | residual activity [8] 93% | residual activity [9] 79% | residual activity [10] 100% | residual activity [11] 100% | residual activity [12] 83% | residual activity [13] 76% | residual activity [14] 100% | residual activity [15] 100% | residual activity [16] 100% | residual activity [17] 96% | residual activity [18] 80% | residual activity [19] 100% | residual activity [20] 100% | residual activity [21] 95% | residual activity [22] 100% | residual activity [23] 100% | residual activity [24] 100% | residual activity [25] 73% | residual activity [26] 100% | residual activity [27] 89% | residual activity [28] 82% | residual activity [29] 81% | residual activity [30] 100% | residual activity [31] 100% | residual activity [32] 100% | residual activity [33] 97% | residual activity [34] 69% | residual activity [35] 71% | residual activity [36] 100% | residual activity [37] 100% | residual activity [38] 100% | residual activity [39] 100% | residual activity [40] 100% | residual activity [41] 84% | residual activity [42] 100% | residual activity [43] 85% | inhibition [44] 20.2%

O=C(Nc1cccnn1)N1CC(C/C=C/c2cncc(Oc3ccc(C(F)(F)F)cn3)n2)C1
inactive: residual activity [1] 67% | residual activity [2] 100% | residual activity [3] 82% | residual activity [4] 82% | residual activity [5] 100% | residual activity [6] 100% | residual activity [7] 100% | residual activity [8] 100% | residual activity [9] 99% | residual activity [10] 100% | residual activity [11] 100% | residual activity [12] 100% | residual activity [13] 91% | residual activity [14] 100% | residual activity [15] 100% | residual activity [16] 100% | residual activity [17] 59% | residual activity [18] 100% | residual activity [19] 58% | residual activity [20] 91% | residual activity [21] 100% | residual activity [22] 100% | residual activity [23] 100% | residual activity [24] 76% | residual activity [25] 100% | residual activity [26] 93% | residual activity [27] 100% | residual activity [28] 100% | residual activity [29] 64% | residual activity [30] 100% | residual activity [31] 60% | residual activity [32] 100% | residual activity [33] 100% | residual activity [34] 65% | residual activity [35] 100% | residual activity [36] 80% | residual activity [37] 89% | residual activity [38] 100% | residual activity [39] 94% | residual activity [40] 79% | residual activity [41] 79% | residual activity [42] 97% | residual activity [43] 90% | inhibition [44] 32.7%
